Experimental data: patent publication US8354432B2, “Cyclic derivatives as modulators of chemokine receptor activity” (Bristol-Myers Squibb Company, priority 2006, dated 2013)

biological target: T1, CCR1 (Homo sapiens, UniProt P32246); test: Antagonism of MIP-1α binding to human THP-1 cells (CCR1 binding); conditions: not given
T1 construct: the THP-1 cell line, which expresses the endogenous CCR1 receptor; endogenous in cells; host or cells: THP-1 cells (human monocytic line); the text also allows human PBMC or human monocytes
T1 sequence (P32246 1-355): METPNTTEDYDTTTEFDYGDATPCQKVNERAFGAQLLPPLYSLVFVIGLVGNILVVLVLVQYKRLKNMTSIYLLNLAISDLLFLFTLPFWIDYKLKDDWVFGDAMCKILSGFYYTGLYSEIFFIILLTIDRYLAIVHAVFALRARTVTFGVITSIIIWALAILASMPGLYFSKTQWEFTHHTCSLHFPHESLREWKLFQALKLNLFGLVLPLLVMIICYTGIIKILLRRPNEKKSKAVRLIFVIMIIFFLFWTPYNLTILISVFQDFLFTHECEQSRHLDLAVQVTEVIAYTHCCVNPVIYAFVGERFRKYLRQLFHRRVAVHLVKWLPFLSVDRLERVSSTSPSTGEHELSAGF
Method: Antagonism of MIP-1α Binding to Human THP-1 Cells
Compounds of the present invention have activity in the antagonism of MIP-1α binding to human THP-1 cells described here.
Millipore filter plates (#MABVN1250) are treated with 100 μl of binding buffer (0.5% bovine serum albumin, 20 mM HEPES buffer and 5 mM magnesium chloride in RPMI 1640 media) for thirty minutes at room temperature. To measure binding, 50 μl of binding buffer, with or without a known concentration of compound, is combined with 50 μl of ^125-I labeled human MIP-1α (to give a final concentration of 50 pM radioligand) and 50 μl of binding buffer containing 5×10^5 cells. Cells used for such binding assays can include the THP-1 cell line, which expresses the endogenous CCR1 receptor, or human peripheral blood mononuclear cells, isolated by Ficoll-Hypaque gradient centrifugation, or human monocytes (Weiner et al., J. Immunol. Methods, 1980, 36, 89). The mixture of compound, cells and radioligand is incubated at room temperature for thirty minutes. Plates are placed onto a vacuum manifold, vacuum applied, and the plates washed three times with binding buffer containing 0.5M NaCl. The plastic skirt is removed from the plate, the plate allowed to air dry, the wells punched out and counted. The percent inhibition of binding is calculated using the total counts obtained in the absence of any competing compound and the background binding determined by addition of 100 nM MIP-1α in place of the test compound.

Molecule | Ki
COc1cc(N2CCC(C(Cn3nc(C(F)(F)F)c(Cl)c3C)NC(=O)CF)CC2)c(Cl)cc1Cl (racemic) [Example 4p, N-(2-(4-Chloro-5-methyl-3-(trifluoromethyl)-1H-pyrazol-1-yl)-1-(1-(2,4-dichloro-5-methoxyphenyl)piperidin-4-yl)ethyl)-2-fluoroacetamide] | 4.3 nM

same assay, conditions: 125-I labeled human MIP-1α (50 pM), THP-1 cells expressing endogenous CCR1, room temperature, thirty minutes; read-out: CCR1 Binding Ki (n = 1 unless otherwise noted)

Molecule | Ki
COc1cc(N2CCC(C(O)Cn3nc(C(F)(F)F)nc3C)CC2)ccc1Cl (racemic) [Example 2h, 1-(1-(4-Chloro-3-methoxyphenyl)piperidin-4-yl)-2-(5-methyl-3-(trifluoromethyl)-1H-1,2,4-triazol-1-yl)ethanol] | 156 nM
COc1cc(N2CCC(C(Cn3nc(C(F)(F)F)c(Cl)c3C)NC(=O)[C@@H](C)O)CC2)c(Cl)cc1Cl (mixture of isomers) [Example 4n, (2R)-N-(2-(4-Chloro-5-methyl-3-(trifluoromethyl)-1H-pyrazol-1-yl)-1-(1-(2,4-dichloro-5-methoxyphenyl)piperidin-4-yl)ethyl)-2-hydroxypropanamide] | 3.46 ± 0.48 nM
COc1cc(N2CCC(C(O)Cn3nc(N)c4cccnc43)CC2)ccc1Cl (racemic) [Example 2c, 2-(3-Amino-1H-pyrazolo[3,4-b]pyridin-1-yl)-1-(1-(4-chloro-3-methoxyphenyl)piperidin-4-yl)ethanol] | ~2220 nM
COc1cc(N2CCC(C(Cn3nc(C(F)(F)F)c(Cl)c3C)NC(=O)CO)CC2)c(Cl)cc1Cl (centres unmarked) [Example 4i, N-(2-(4-Chloro-5-methyl-3-(trifluoromethyl)-1H-pyrazol-1-yl)-1-(1-(2,4-dichloro-5-methoxyphenyl)piperidin-4-yl)ethyl)-2-hydroxyacetamide] | 5.15 ± 1.68 nM
COc1cc(N2CCC(C(N)Cn3nc(C(F)(F)F)c(Cl)c3C)CC2)c(Cl)cc1Cl (racemic) [Example 4a, 2-(4-Chloro-5-methyl-3-(trifluoromethyl)-1H-pyrazol-1-yl)-1-(1-(2,4-dichloro-5-methoxyphenyl)piperidin-4-yl)ethanamine] | 125 nM
COc1cc(N2CCC(C(Cn3nc(C(F)(F)F)c(Cl)c3C)NC(C)=O)CC2)c(Cl)cc1Cl (racemic) [Example 4c, N-(2-(4-Chloro-5-methyl-3-(trifluoromethyl)-1H-pyrazol-1-yl)-1-(1-(2,4-dichloro-5-methoxyphenyl)piperidin-4-yl)ethyl)acetamide] | 6.8 nM

Other lines, results leading:

Ki | Molecule
~1250 nM | COc1cc(N2CCC(C)(C(O)Cn3nc(C(F)(F)F)c(Cl)c3C)CC2)ccc1Cl (racemic) [Example 11, 1-(1-(4-Chloro-3-methoxyphenyl)-4-methylpiperidin-4-yl)-2-(4-chloro-5-methyl-3-(trifluoromethyl)-1H-pyrazol-1-yl)ethanol]
1020 nM | COc1cccc(N2CCC(C(O)Cn3nc(C(F)(F)F)c(Cl)c3C)CC2)c1 (racemic) [Example 15b, 2-(4-Chloro-5-methyl-3-(trifluoromethyl)-1H-pyrazol-1-yl)-1-(1-(3-methoxyphenyl)piperidin-4-yl)ethanol]
~2200 nM | N-(1-(1-(4-chloro-3-methoxyphenyl)piperidin-4-yl)-2-(5-methyl-3-(trifluoromethyl)-1H-pyrazol-1-yl)ethyl)-2-hydroxyacetamide [Example 5b]
145 nM | COc1cc(N2CCC(C(Cn3nc(C(F)(F)F)cc3C)NC(=O)CN)CC2)ccc1Cl (single isomer, unassigned) [Example 5c, 2-amino-N-(1-(1-(4-chloro-3-methoxyphenyl)piperidin-4-yl)-2-(5-methyl-3-(trifluoromethyl)-1H-pyrazol-1-yl)ethyl)acetamide]
